# Results from patent publication US12209111B2, “Targeting P18 for mTOR-related disorders” (WESTERN UNIVERSITY OF HEALTH SCIENCES, priority 2018, dated 2025).
# “Also recorded” adds a separate entry of the source. Where a SMILES comes first, the peptide text is derived from it. The star is where a group is joined. Cbz = O=C(OCc1ccccc1)*
# Tests used:
# [1] = tested on: p18; test: Cultured hippocampal neurons treated with MG132 or BafA, p18 immunofluorescence; format: cell-based, mouse; conditions: 4 h
# [2] = tested on: p18; test: Acute hippocampal slices treated with proteasome or lysosome inhibitor, p18 Western blot; format: cell-based, mouse; conditions: 30 min
# Protocol: Acute Hippocampal Slice Preparation. Adult male mice (2-4-month-old) were anesthetized with gaseous isoflurane and decapitated. Brains were quickly removed and transferred to oxygenated, ice-cold cutting medium (in mM): 124 NaCl, 26 NaHCO3, 10 glucose, 3 KCl, 1.25 KH2PO4, 5 MgSO4, and 3.4 CaCl2. Hippocampal transversal slices (400 μm-thick) were prepared using a McIlwain-type tissue chopper and transferred to i) an interface recording chamber and exposed to a warm, humidified atmosphere of 95% O2/5% CO2 and continuously perfused with oxygenated and preheated (33±0.5° C.) artificial cerebrospinal fluid (aCSF) (in mM) [110 NaCl, 5 KCl, 2.5 CaCl2, 1.5 MgSO4, 1.24 KH2PO4, 10 D-glucose, 27.4 NaHCO3], perfused at 1.4 ml/min (electrophysiology); or ii) a recovery chamber with a modified aCSF medium, containing (in mM): 124 NaCl, 2.5 KCl, 2.5 CaCl2, 1.5 MgSO4, 1.25 NaH2PO4, 24 NaHCO3, 10 D-glucose, and saturated with 95% O2/5% CO2 for 1 h at 37° C. (biochemical assays).
# To determine whether Ube3a-mediated regulation of p18 was proteasome- and/or lysosome-dependent, acute hippocampal slices from WT and AS mice were treated with either a proteasome inhibitor, MG132 (10 μM), or a lysosome inhibitor, the vacuolar H+-ATPase (V-ATPase) inhibitor, bafilomycin A1 (BafA, 100 nM), for 30 min.
# [3] = biological target: T1, mTOR (Mus musculus, UniProt Q9JLN9); test: MHY1485 treatment of hippocampal slices from p18 siRNA-injected WT mice (LTP, Western blot); format: cell-based; conditions: 2 μM, 60 min pre-incubation, to levels of control siRNA-injected WT mice
# T1 construct: Pre-incubation of hippocampal slices with MHY1485 (2 μM) for 60 min reestablished TBS-elicited LTP; from tissue; host or cells: acute hippocampal slices from AAV p18 siRNA- or control siRNA-injected WT mice
# Protocol: Electrophysiology. After 1.5 h incubation at 33±0.5° C. in the recording chamber, a single glass pipette filled with 2 M NaCl was used to record field EPSPs (fEPSPs) elicited by stimulation of the Schaffer collateral pathway with twisted nichrome wires (single bare wire diameter, 50 μm) placed in CA1 stratum radiatum. Stimulation pulses were generated using a Multichannel Systems Model STG4002 Stimulator (Reutlingen, Germany). Responses were recorded through a differential amplifier (DAM 50, World Precision Instruments, USA) with a […]. Before each experiment, the input/output (I/O) relation was examined by varying the intensity of the stimulation. Paired-pulse facilitation was tested at 20-300 ms interval. Long-term potentiation (LTP) was induced using theta burst stimulation (10 bursts at 5 Hz, each burst consisting of 4 pulses at 100 Hz, with a pulse duration of 0.2 ms). For LTP and paired-pulse facilitation experiments, the stimulation intensity was regulated to a current which elicited a 40% of maximal response. Data were collected and digitized by Clampex, and the slope of fEPSP was analyzed. […] All data are expressed as means±SEM, and statistical significance of differences between means was calculated with appropriate statistical tests as indicated in figure legends.
# [4] = tested on: Hela cell; test: Lysosome positioning in Hela cells (Lysotracker live imaging); format: cell-based; conditions: for lysosome distribution to the peripheral region of the cell: before and 30 min after treatment (FIG. 20B)
# Protocol: (§1) (A) Amino acid sequence of human p18 (SEQ ID NO: 23). G2 is a myristoylation site. C3 and C4 are palmitoylation sites. K20, K31, K60, K103, K104, and K151 (red) are potential ubiquitination sites. Two short peptides around K20/31 and K151 (underlined) were respectively conjugated to the cell membrane transduction domain of HIV-1 Tat protein (TAT-2031 and TAT-151). […] Hela cells were stained with Lysotracker (red) and imaged live. Top panel, representative images of Lysotracker before and 30 min after TAT-2031 treatment are shown. Bottom panel, graph represents the distribution of lysosomes relative to the MTOC, normalized to the distance between the MTOC and the cell periphery. (C) Hela cells were incubated with TAT or TAT-2031 (2 μM) for 42 hr. Representative blots and quantification of p18, p-mTOR/mTOR, p-S6K1/S6K1, and p-S6/S6 in whole cell lysates are shown. N=2 independent experiments.
# (§2) Example 9: Short peptides targeting p18 reduced mTOR activation and promoted peripheral positioning of lysosomes in HELA cells. To test whether blocking p18 ubiquitination and interruption of its interaction with other proteins could disrupt mTOR signaling and lysosome localization and function, we designed two small decoy peptides (TAT-2031 and TAT-151) targeting different domains of p18 containing lysine residues (FIG. 20A); these peptides are conjugated to the cell membrane transduction domain of HIV-1 Tat protein. […] SEQ ID NO:19 corresponds to […], residues 20-31 of p18.
# [5] = tested on: mTOR signaling pathway; test: mTOR signaling in Hela cells treated with p18 short peptides, Western blot; format: cell-based; conditions: for mTORC1 activation: Hela cells (FIG. 20C); for Effects: mTOR signaling pathway: Hela cells, TAT or TAT-2031 2 μM for 42 hr, ratios p-mTOR/mTOR, p-S6K1/S6K1, p-S6/S6
# Protocol: as §1, §2
# [6] = biological target: p18-TRPML1 interaction (Homo sapiens, UniProt Q6IAA8); test: p18-TRPML1 interaction
# Sequence of p18-TRPML1 interaction (Q9GZU1 whole entry partner): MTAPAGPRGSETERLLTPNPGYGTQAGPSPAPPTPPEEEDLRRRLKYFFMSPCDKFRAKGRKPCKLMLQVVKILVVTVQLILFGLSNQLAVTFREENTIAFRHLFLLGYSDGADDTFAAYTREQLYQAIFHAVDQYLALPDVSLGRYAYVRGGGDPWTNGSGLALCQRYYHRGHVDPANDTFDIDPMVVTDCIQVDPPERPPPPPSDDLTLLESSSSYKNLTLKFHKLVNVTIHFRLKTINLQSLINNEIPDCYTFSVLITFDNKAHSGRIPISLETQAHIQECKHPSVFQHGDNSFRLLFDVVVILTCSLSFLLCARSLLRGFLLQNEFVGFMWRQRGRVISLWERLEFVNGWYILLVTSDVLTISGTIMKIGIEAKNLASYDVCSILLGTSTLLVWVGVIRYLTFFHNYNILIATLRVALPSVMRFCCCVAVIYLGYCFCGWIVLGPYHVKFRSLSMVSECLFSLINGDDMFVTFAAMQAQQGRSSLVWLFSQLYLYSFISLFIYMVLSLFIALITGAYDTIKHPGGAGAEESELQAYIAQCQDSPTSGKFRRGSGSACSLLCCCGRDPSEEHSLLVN
# Sequence of p18-TRPML1 interaction (Q6IAA8 whole entry): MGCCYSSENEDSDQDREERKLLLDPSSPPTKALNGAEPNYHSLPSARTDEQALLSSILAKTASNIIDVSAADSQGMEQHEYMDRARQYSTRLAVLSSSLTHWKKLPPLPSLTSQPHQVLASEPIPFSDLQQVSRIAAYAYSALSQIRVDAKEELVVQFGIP
# Text: as §2
# [7] = tested on: Hela cell; test: Migration of Hela cell; format: cell-based
Molecule,lysosome distribution to the peripheral region of the cell [4],mTORC1 activation [5],Effects: mTOR signaling pathway [5],Effects: p18-TRPML1 interaction [6],Effects: Migration of Hela cell [7],also measured
"CO/C1=C\C(C)=C\[C@@H](C)[C@@H](O)[C@@H](C)C/C(C)=C/C=C/[C@H](OC)[C@@H]([C@@H](C)[C@@H](O)[C@H](C)[C@@]2(O)C[C@@H](O)[C@H](C)[C@@H](C(C)C)O2)OC1=O [BafA, bafilomycin A1]",–,–,–,–,–,"p18 intensity ([1]; cultured hippocampal neurons from both WT and AS mice, 100 nM): only slightly increased"
CC(C)C[C@@H](C=O)NC(=O)[C@H](CC(C)C)NC(=O)[C@H](CC(C)C)NC(=O)OCc1ccccc1 [MG132] (Cbz-Leu-Leu-Leu-aldehyde),–,–,–,–,–,"p18 levels in AS slices ([2]; acute hippocampal slices from AS mice, MG132 10 μM): marginally; p18 levels in WT slices ([2]; acute hippocampal slices from WT mice, MG132 10 μM or BafA 100 nM): significantly increased; p18 intensity ([1]; cultured hippocampal neurons from WT mice, 10 μM): markedly increased"
O=[N+]([O-])c1ccc(Nc2nc(N3CCOCC3)nc(N3CCOCC3)n2)cc1 [MHY1485],–,–,–,–,–,TBS-elicited LTP [3]: reestablished
TAT-151: Short p18 peptide around K151 conjugated to HIV-1 Tat transduction domain: YGRKKRRQRRRKEELVV,not,not,Little,–,–,–
TAT-2031: p18 residues 20-31 (KLLLDPSSPPTK) conjugated to HIV-1 Tat transduction domain: YGRKKRRQRRRKLLLDPSSPPTK,increased; also recorded: shifted the distribution of lysosomes toward the cell periphery,significantly reduced,–,Reduced the,Slightly reduced,lysosome distribution to the peripheral region of the cell ([4]; listed as short decoy peptide around K20/31): increased
"TAT: Cell membrane transduction domain of HIV-1 Tat protein, YGRKKRRQRRR; control peptide [reference compound]",–,–,No,No,No,Effects: Lysosome positioning in Hela cell [4]: No
